Reference: publication PMC12155470, “Novel Tetraene Macrodiolides Are Effective Inducers of Mitochondrial Apoptosis in Jurkat Cells” (International Journal of Molecular Sciences, 2025)
Read-outs that look alike come from different tables or passages of the source.

Assays:
[1] = tested on: K562; assay: In vitro cytotoxic activity, 7-AAD flow cytometry, K562; type: cell-based, Human; settings: Homo sapiens, K562, 24 h, 24 h incubation, mean ± SD, triplicate
Source text: (§1) The investigation focused on the assessment of the synthesized compounds’ toxicities, utilizing a panel of six diverse cell lines. The selection of cells was based on the specific features of their metabolism, namely, Jurkat, K562, U937, and HL60 cells are suspension cultures of oncohematologic origin, and HEK293 is a conditionally normal line transformed by adenovirus and often used as control cells along with fibroblasts. The normal fibroblast line (Wi-38) utilized in the experiment was diploid and was obtained from the lung tissue of an aborted fetus. The total cytotoxic activity of 16 compounds was studied using flow cytometry.
(§2) Human cancer cell lines, including Jurkat, K562, U937, HL60, and fibroblasts (Wi-38), were obtained from the European Authentic Cell Culture Collection and further cultured according to established standard protocols using sterile methods. The cells were cultivated in RPMI 1640 (for Jurkat and K562) and DMEM (for Wi-38 and HEK293) media (Gibco, Billings, MT, USA), with the addition of […] glutamine, 10% FBS (Sigma, Kanagawa, Japan), and 100 U/mL penicillin–streptomycin (Sigma). All cell types were cultivated in a humidified atmosphere containing 5% CO₂ at a temperature of 37 °C. Subculturing was performed at two- to three-day intervals. The cells were subsequently seeded into 24-well plates at a density of 5 × 10^4 cells per well and incubated overnight. Subsequent subculturing was then performed at two-day intervals, with a seeding density of 1 × 10^5 cells per 24-well plate, using RPMI medium with 10% FBS [49].
(§3) The dissolution of the compounds tested was initially performed in dimethyl sulfoxide (DMSO) with an initial solution of 100 mM in 10% DMSO. Subsequently, the solution was diluted in a complete culture medium, namely, Dulbecco’s medium, modified Eagle’s medium (DMEM), or Roswell Park Memorial Institute medium (RPMI). Substances were added at concentrations of 10, 1, 100, 10, 1, and 0.1 μM on the day after seeding and incubated for 24 h. Following this, the cells were washed with a phosphate-buffered saline (PBS) solution and stained with 7AAD dye, as per the manufacturer’s protocol for flow cytometry. The CC50 value, which characterizes the parameters of toxicity (i.e., the concentration of the compound required for 50% inhibition of cell viability in vitro), was calculated. logC versus % inhibition was plotted, and statistical data processing was performed using Excel and GraphPad Prism v.8.0.2 (San Diego, CA, USA, 2019). The data obtained from three independent experiments were expressed as the mean of three measurements for each concentration, with the standard deviation indicated as well. These values were then relative to the control values (0.1% DMSO), which were taken as 100%.
(§4) 7-AAD (7-aminoactinomycin D) dye (eBioscience™, San Diego, CA, USA) was used to assess cell viability. Following incubation with the test compounds, the cells were harvested, washed with a phosphate–salt buffer (PBS), and subjected to centrifugation at 400× g for five minutes. The cell sediment was resuspended in 200 μL of staining buffer for flow cytometry (PBS without calcium and magnesium, 2.5% FBS) and stained with a 1 mM 7-AAD dye solution for 15 min in the dark at room temperature. Subsequently, all samples, including experimental and control groups, were analyzed using a BD FACSAria™ III Cell Sorter flow cytometer (Milpitas, CA, USA).

[2] = In vitro cytotoxic activity, 7-AAD flow cytometry, Hek293; type: cell-based; settings: human, HEK293 cells, conditionally normal line, 24 h incubation, mean ± SD
Source text: as §1, §2, §3, §4

[3] = tested on: HL60; assay: In vitro cytotoxic activity, 7-AAD flow cytometry, HL60; type: cell-based; settings: Homo sapiens, HL-60, 24 h incubation, mean ± SD, triplicate
Source text: as §1, §2, §3, §4

[4] = tested on: U937; assay: In vitro cytotoxic activity, 7-AAD flow cytometry, U937; type: cell-based, Human; settings: 24 h incubation, mean ± SD, triplicate
Source text: as §1, §2, §3, §4

[5] = tested on: Jurkat; assay: In vitro cytotoxic activity, 7-AAD flow cytometry, Jurkat; type: cell-based, Human; settings: Homo sapiens, Jurkat, 24 h, 24 h incubation, mean ± SD, triplicate
Source text: as §1, §2, §3, §4

[6] = In vitro cytotoxic activity, 7-AAD flow cytometry, normal fibroblasts; type: cell-based; settings: human, Wi-38 normal lung fibroblasts, normal fibroblasts Wi-38, 24 h incubation, mean ± SD, read-out: Fibrobl. (CC50)
Source text: as §1, §2, §3, §4

[7] = tested on: Jurkat cells; assay: Mitodamage assay (MitoSense Red, Annexin V-CF488A, 7-AAD); type: cell-based, Human; settings: compound at CC50 concentration, four hours, MitoSense Red
Method: To this end, MitoSense Red, a fluorescent dye that accumulates predominantly in mitochondria and responds to changes in membrane potential, was utilized. […] Two dyes commonly employed for detecting apoptosis in cells are annexin V and 7AAD. […] Therefore, the dissipation of mitochondrial membrane potential and the associated apoptosis process in Jurkat tumor cells were analyzed in response to exposure to synthesized macrodiolides. MitoSense Red, Annexin V-CF488A, and 7-AAD were used as dyes for this analysis (see Figure 3). A flow cytometry kit (FlowCellect™ MitoDamage Kit from Millipore, Hayward, CA USA) was utilized, as it facilitates a multiparametric evaluation of three markers of cell health. These markers include changes in mitochondrial potential (early apoptosis and cell stress), phosphatidylserine expression on the cell surface (late apoptosis), and membrane permeability (cell death). The method of the simultaneous detection of mitochondrial damage was performed according to the well-known technique.  Figure 3 Detection changes in mitochondrial membrane potential (ΔΨ) and coupled early and late apoptosis in Jurkat cells treated with compounds 9d, 8d, 7d, and 6d. Staurosporine and carbonyl cyanide-m-chlorophenylhydrazone were utilized as control compounds. The addition of all the tested compounds was executed at the CC50 concentration (refer to the provided table for the cytotoxicities of the synthesized compounds). The staining of cells was conducted using MitoSense Red, Annexin V-CF488A, and 7-AAD. The incubation period lasted for a duration of four hours. The presence of three *** (p < 0.001) and two asterisks ** (p < 0.005) indicates the significance of the observed differences between the values obtained in the control sample and the samples treated with the synthesized substances (comparison was performed by one-way ANOVA). All experiments were performed in triplicate.

[8] = tested on: Jurkat, K562, U937, HEK293, and HeLa cell cultures; settings: cited from earlier work

SMILES | CC50 [1] [µM] | CC50 at 24 h [2] [µM] | CC50 [3] [µM] | CC50 ([4]; Homo sapiens, U-937, 24 h) [µM] | CC50 [5] [µM] | CC50 at 24 h [6] [µM] | Jurkat cells with reduced mitochondrial membrane potential (Δψ dissipation) [7] [%] | CC50 [4] [µM] | CC50 ([8]; K562, HEK293, and HeLa) [µM] | CC50 ([8]; individual cell cultures Jurkat, U937) [µM]
O=C1CCC/C=C\CC/C=C\CCCC(=O)OCCCCC/C=C\CC/C=C\CCCCCO1 [Compound 8b] | 0.0192 ± 0.00179 | 0.0482 ± 0.00434 | 0.0187 ± 0.00171 | 0.0179 ± 0.00183 | 0.021 ± 0.00234 | 0.0672 ± 0.00624 |  |  |  | 
O=C1CCCC/C=C\CC/C=C\CCCCC(=O)OCCCC/C=C\CC/C=C\CCCCO1 [Compound 7c] | 0.0167 ± 0.00159 | 0.0463 ± 0.00399 | 0.0153 ± 0.00148 | 0.0173 ± 0.00162 | 0.0184 ± 0.00186 | 0.0595 ± 0.00537 |  |  |  | 
O=C1CC/C=C\CC/C=C\CCC(=O)OCCCCCC/C=C\CC/C=C\CCCCCCO1 [Compound 9a] | 0.0204 ± 0.00189 | 0.0549 ± 0.00537 | 0.0202 ± 0.00217 | 0.0198 ± 0.00197 | 0.0242 ± 0.00239 | 0.0799 ± 0.0069 |  |  |  | 
O=C1CC/C=C\CC/C=C\CCC(=O)OCCCC/C=C\CC/C=C\CCCCO1 [Compound 7a] | 0.0236 ± 0.00214 | 0.0499 ± 0.00483 | 0.0204 ± 0.00207 | 0.0222 ± 0.00234 | 0.0264 ± 0.00246 | 0.0672 ± 0.00639 |  |  |  | 
O=C1CCCC/C=C\CC/C=C\CCCCC(=O)OCCC/C=C\CC/C=C\CCCO1 [Compound 6c] | 0.0197 ± 0.00163 | 0.0428 ± 0.00439 | 0.0201 ± 0.00195 | 0.0192 ± 0.00187 | 0.0221 ± 0.00214 | 0.0589 ± 0.00581 |  |  |  | 
O=C1CCCCC/C=C\CC/C=C\CCCCCC(=O)OCCCC/C=C\CC/C=C\CCCCO1 [Compound 7d] | 0.0171 ± 0.00184 | 0.0486 ± 0.00482 | 0.0145 ± 0.00157 | 0.0151 ± 0.00143 | 0.0181 ± 0.00191 | 0.0602 ± 0.00521 | 69.26 |  |  | 
O=C1CCCC/C=C\CC/C=C\CCCCC(=O)OCCCCC/C=C\CC/C=C\CCCCCO1 [Compound 8c] | 0.0169 ± 0.00162 | 0.0473 ± 0.00422 | 0.0147 ± 0.00142 | 0.0155 ± 0.00149 | 0.0178 ± 0.00173 | 0.0648 ± 0.00635 |  |  |  | 
O=C1CC/C=C\CC/C=C\CCC(=O)OCCCCC/C=C\CC/C=C\CCCCCO1 [Compound 8a] | 0.0223 ± 0.00216 | 0.0643 ± 0.00537 | 0.0218 ± 0.00196 | 0.0234 ± 0.00227 | 0.0253 ± 0.00263 | 0.0864 ± 0.00711 |  |  |  | 
O=C1CC/C=C\CC/C=C\CCC(=O)OCCC/C=C\CC/C=C\CCCO1 [Compound 6a] | 0.0248 ± 0.00237 | 0.0523 ± 0.00517 | 0.0198 ± 0.00181 | 0.0231 ± 0.00211 | 0.0283 ± 0.00265 | 0.0762 ± 0.00762 |  |  |  | 
O=C1CCCCC/C=C\CC/C=C\CCCCCC(=O)OCCCCC/C=C\CC/C=C\CCCCCO1 [Compound 8d] | 0.0152 ± 0.00146 | 0.0511 ± 0.0056 | 0.0111 ± 0.00139 | 0.0122 | 0.0161 ± 0.00158 | 0.0637 ± 0.00607 | 75.42 | 0.0122 ± 0.00137 |  | 
O=C1CCCCC/C=C\CC/C=C\CCCCCC(=O)OCCC/C=C\CC/C=C\CCCO1 [Compound 6d] | 0.0169 ± 0.00188 | 0.0443 ± 0.00421 | 0.0157 ± 0.00143 | 0.0152 ± 0.00156 | 0.0185 ± 0.00178 | 0.0594 ± 0.00546 | 58.99 |  |  | 
O=C1CCCC/C=C\CC/C=C\CCCCC(=O)OCCCCCC/C=C\CC/C=C\CCCCCCO1 [Compound 9c] | 0.0147 ± 0.00149 | 0.0492 ± 0.00477 | 0.0128 ± 0.00137 | 0.0131 ± 0.00131 | 0.0173 ± 0.00159 | 0.0594 ± 0.00529 |  |  |  | 
O=C1CCCCCC(=O)OCCCCCC/C=C\CC/C=C\CCCCCCO1 |  |  |  |  |  |  |  |  | 0.06 to 0.15 | 0.01 to 0.02
O=C1CCC/C=C\CC/C=C\CCCC(=O)OCCC/C=C\CC/C=C\CCCO1 [Compound 6b] | 0.0215 ± 0.00201 | 0.0462 ± 0.00375 | 0.0204 ± 0.0021 | 0.0224 ± 0.00224 | 0.0212 ± 0.00197 | 0.0619 ± 0.00627 |  |  |  | 
O=C1CCC/C=C\CC/C=C\CCCC(=O)OCCCCCC/C=C\CC/C=C\CCCCCCO1 [Compound 9b] | 0.0173 ± 0.00164 | 0.052 ± 0.00543 | 0.0156 ± 0.00149 | 0.0157 ± 0.00153 | 0.0183 ± 0.00204 | 0.0616 ± 0.00592 |  |  |  | 
O=C1CCC/C=C\CC/C=C\CCCC(=O)OCCCC/C=C\CC/C=C\CCCCO1 [Compound 7b] | 0.0181 ± 0.00183 | 0.0531 ± 0.00496 | 0.0182 ± 0.00176 | 0.0174 ± 0.00171 | 0.0203 ± 0.00204 | 0.0626 ± 0.00594 |  |  |  | 
